Measured values from BindingDB's records for patent US8822500 (Chembridge, 2014).

Biological target: ALK tyrosine kinase receptor (Homo sapiens, UniProt Q9UM73)
Assay: In Vitro Kinase Activity Assay
Settings: pH 7.5

Chain of ALK tyrosine kinase receptor (Q9UM73 whole entry): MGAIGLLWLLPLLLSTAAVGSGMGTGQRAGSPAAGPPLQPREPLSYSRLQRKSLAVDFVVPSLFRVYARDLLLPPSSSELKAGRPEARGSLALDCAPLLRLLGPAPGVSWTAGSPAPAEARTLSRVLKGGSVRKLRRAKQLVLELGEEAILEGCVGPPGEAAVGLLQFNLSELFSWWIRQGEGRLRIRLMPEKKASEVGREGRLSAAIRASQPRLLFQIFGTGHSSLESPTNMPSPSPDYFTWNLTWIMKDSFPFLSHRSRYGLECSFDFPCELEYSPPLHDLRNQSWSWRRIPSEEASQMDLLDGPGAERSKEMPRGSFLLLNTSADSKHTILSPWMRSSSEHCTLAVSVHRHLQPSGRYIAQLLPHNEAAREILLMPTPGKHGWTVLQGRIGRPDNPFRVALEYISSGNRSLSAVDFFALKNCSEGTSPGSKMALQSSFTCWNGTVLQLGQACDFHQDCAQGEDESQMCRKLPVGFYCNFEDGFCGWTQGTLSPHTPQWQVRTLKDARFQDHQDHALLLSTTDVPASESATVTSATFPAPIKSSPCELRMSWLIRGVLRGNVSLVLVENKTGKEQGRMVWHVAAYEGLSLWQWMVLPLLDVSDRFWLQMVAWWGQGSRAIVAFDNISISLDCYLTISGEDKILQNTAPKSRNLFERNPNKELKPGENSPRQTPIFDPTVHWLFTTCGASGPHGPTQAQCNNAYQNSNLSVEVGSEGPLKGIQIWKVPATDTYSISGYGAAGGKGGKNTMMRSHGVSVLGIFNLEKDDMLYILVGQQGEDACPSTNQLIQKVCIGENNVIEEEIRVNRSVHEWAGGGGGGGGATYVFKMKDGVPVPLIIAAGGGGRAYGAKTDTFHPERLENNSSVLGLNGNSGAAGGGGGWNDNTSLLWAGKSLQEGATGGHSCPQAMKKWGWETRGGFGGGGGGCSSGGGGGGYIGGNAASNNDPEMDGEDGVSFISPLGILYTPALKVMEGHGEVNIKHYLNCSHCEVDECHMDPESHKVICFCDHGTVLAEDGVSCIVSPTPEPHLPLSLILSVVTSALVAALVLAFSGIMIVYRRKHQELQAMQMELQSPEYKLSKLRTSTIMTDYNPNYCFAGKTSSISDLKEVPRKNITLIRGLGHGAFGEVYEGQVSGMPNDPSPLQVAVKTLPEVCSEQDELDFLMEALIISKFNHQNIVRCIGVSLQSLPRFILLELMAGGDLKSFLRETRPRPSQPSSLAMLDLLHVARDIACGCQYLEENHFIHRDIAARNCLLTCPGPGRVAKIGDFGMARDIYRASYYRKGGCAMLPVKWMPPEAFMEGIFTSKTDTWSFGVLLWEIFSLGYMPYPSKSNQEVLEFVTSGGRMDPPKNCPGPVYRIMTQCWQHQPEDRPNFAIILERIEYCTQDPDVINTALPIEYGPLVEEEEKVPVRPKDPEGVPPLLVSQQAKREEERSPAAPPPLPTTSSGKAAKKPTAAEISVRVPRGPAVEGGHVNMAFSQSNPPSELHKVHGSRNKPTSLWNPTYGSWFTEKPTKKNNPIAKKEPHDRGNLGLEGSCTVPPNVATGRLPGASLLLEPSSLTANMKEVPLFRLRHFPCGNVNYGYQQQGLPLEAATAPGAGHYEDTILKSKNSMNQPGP

`CC(Cc1cc(F)ccc1F)Nc1cc[nH]c(=O)c1-c1nc2cc3c(cc2[nH]1)C(=O)N(C1CCN(C)CC1)C3=O` (stereo unspecified) [US8822500, [28]] was tested, and the IC50 was 15.1 nM.
